Columns and labels:
OCT2 = biological target: T1, OCT2 (Homo sapiens, UniProt O15244); assay: Transporter substrate/inhibitor assessment, OCT2; format: in vitro ADME
T1 sequence (O15244 1-555): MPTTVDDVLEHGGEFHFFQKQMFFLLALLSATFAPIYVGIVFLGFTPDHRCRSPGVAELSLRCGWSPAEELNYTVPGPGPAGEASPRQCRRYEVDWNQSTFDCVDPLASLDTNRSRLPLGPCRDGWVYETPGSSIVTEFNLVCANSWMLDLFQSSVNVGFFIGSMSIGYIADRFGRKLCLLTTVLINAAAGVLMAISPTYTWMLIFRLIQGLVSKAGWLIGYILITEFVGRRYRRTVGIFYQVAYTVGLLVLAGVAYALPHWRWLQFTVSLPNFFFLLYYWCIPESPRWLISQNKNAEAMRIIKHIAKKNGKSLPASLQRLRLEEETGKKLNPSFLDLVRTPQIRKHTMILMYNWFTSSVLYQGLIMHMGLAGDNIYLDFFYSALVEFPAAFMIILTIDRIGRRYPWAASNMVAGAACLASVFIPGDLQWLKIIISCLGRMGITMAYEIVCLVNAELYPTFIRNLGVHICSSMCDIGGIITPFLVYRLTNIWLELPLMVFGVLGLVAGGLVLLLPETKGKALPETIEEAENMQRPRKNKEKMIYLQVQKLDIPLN

in vitro = conditions: human
CYP3A4 [1] = biological target: T2, CYP3A4 (Homo sapiens, UniProt P08684); assay: Intrinsic clearance in human recombinant CYP3A4
T2 sequence (P08684 whole entry): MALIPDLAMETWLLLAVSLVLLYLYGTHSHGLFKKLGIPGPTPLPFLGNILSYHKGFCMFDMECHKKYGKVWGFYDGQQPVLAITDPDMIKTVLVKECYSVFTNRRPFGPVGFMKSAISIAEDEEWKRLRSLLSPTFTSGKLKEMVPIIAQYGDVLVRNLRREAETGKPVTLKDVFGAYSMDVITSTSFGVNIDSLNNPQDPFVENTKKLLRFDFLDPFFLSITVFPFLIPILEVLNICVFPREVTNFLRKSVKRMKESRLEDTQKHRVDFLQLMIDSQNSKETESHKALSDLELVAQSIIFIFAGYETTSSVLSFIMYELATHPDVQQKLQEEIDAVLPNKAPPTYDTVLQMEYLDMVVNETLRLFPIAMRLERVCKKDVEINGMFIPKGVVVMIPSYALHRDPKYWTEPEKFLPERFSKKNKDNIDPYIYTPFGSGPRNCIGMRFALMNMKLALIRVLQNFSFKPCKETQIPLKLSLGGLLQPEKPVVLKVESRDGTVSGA

MATE2K = MATE2K (Homo sapiens, UniProt Q86VL8); assay: Transporter substrate/inhibitor assessment, MATE2K; format: in vitro ADME
Chain of MATE2K (Q86VL8 1-566 isoform Q86VL8-3, species assumed): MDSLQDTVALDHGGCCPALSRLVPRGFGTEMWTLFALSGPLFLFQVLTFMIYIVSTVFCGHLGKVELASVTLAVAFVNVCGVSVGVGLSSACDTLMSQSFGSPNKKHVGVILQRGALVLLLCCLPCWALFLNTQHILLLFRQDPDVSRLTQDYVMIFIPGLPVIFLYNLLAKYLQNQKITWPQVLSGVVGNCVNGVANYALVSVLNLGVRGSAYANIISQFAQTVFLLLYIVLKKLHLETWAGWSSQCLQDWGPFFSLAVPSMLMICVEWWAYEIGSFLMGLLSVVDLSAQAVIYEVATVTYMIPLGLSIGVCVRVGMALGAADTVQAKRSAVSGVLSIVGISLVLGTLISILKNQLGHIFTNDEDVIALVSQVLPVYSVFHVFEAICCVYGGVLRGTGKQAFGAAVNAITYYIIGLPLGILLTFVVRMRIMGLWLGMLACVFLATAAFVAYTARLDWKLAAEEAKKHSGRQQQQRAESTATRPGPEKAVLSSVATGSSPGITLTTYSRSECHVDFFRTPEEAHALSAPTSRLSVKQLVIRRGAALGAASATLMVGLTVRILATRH

CYP3A4 [2] = biological target: T2, CYP3A4; assay: Clinical DDI study with itraconazole and rifampicin in healthy American (White) subjects; conditions: for Cmax: plasma, oral, Cmax Obs.
Method: After a 3-day washout period, they were pretreated with 200 mg of oral itraconazole once daily for 4 days to inhibit CYP3A4 (Days 5–8). […] After a 3-day washout, subjects were pretreated with 600 mg of oral rifampicin once daily for 7 days to induce CYP3A4 (Days 5–11). […] Blood samples were collected immediately before and after drug administration at 0.5, 1, 2, 4, 6, 8, 12, 24, 48, 72, and 96 h.

[3] = Blood/plasma (B/P) ratio in healthy volunteer blood; format: in vitro ADME, human
Excerpt: Besides, the B/P ratio was obtained from healthy volunteer blood, however, in patients with CML, too many myeloid cells become granulocytes (red blood cells, platelets and several white blood cell types). So, red blood cell count might change B/P ratio in CML patients. […] Furthermore, the model simulation for liver cirrhosis patients was not validated by clinical data. We believe that further research is needed on this point.

CYP2C19 = CYP2C19 (Homo sapiens, UniProt P33261); assay: CYP2C19 inhibition in human liver microsomes
Chain of CYP2C19 (P33261 whole entry): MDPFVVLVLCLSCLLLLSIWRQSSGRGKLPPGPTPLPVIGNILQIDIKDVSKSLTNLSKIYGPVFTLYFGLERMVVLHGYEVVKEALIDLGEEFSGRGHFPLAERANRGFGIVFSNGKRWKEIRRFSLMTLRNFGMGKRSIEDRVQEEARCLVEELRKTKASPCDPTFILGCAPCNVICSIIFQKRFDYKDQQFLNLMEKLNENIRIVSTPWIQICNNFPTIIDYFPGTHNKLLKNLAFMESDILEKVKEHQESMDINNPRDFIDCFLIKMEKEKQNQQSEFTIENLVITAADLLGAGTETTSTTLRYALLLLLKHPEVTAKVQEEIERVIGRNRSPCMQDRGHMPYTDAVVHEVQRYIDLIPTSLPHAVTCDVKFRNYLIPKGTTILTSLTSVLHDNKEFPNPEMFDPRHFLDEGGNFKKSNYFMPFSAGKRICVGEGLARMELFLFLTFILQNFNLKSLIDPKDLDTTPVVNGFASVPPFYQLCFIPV
Method: Ki=IC50/1+S/Km (1) Where IC50 signifies the half-maximum inhibitory concentration; S, the concentration of P450 marker substrate; and K m , the Michaelis constant within the Michaelis-Menten equation, which is in turn used to characterize substrate-enzyme binding kinetics.
The Michaelis constant (K m ) of CYP2C9 incubated with diclofenac was obtained from reported data ([Lee et al., 2014]). Methods used to calculate the Ki of CYP2C19 and CYP2C9 were similar.

Cc1ccc(C(=O)Nc2ccc(CN3CCN(C)CC3)c(C(F)(F)F)c2)cc1C#Cc1cnc2[nH]ncc2c1 [olverembatinib, Olverembatinib]
substrate or inhibitor of OCT2 (OCT2): neither a substrate nor inhibitor | microsomal CLint (in vitro): 5.26 µL/min/mg | CYP2C9 induction, strength (CYP2C9; hepatocytes): weak | EC50 (CYP2C9; human): 323 nM | CLint CYP3A4 (CYP3A4 [1]): 0.200 µL/min/pmol CYP | substrate or inhibitor of MATE2K (MATE2K): neither a substrate nor inhibitor | AUC Obs. (CYP3A4 [2]; White healthy volunteers, fed, 20 mg SD, olverembatinib alone): 125 h?ng/mL | AUC Obs. (CYP3A4 [2]; White healthy volunteers, fed, 40 mg SD, olverembatinib alone): 302 h?ng/mL | AUC Obs. (CYP3A4 [2]; coadministration with itraconazole, healthy White volunteers): 330 h?ng/mL | AUC Obs. (CYP3A4 [2]; coadministration with rifampicin, healthy White volunteers): 73.0 h?ng/mL | AUC decrease after rifampicin administration (CYP3A4 [2]; human, in vivo): 76% | AUC increase after itraconazole treatment (CYP3A4 [2]; human, in vivo, 200 mg): 163% | Cmax (CYP3A4 [2]; human, 20 mg, White healthy volunteers, fed, 20 mg SD, olverembatinib alone): 5.26 ng/mL | Cmax (CYP3A4 [2]; human, 40 mg, White healthy volunteers, fed, 40 mg SD, olverembatinib alone): 12.7 ng/mL | Cmax (CYP3A4 [2]; human, coadministration with itraconazole, healthy White volunteers): 9.14 ng/mL | Cmax (CYP3A4 [2]; human, coadministration with rifampicin, healthy White volunteers): 4.54 ng/mL | mean conc (N=3) ([3]; blood H): 43.5 | mean conc (N=3) ([3]; blood L): 0.395 | mean conc (N=3) ([3]; blood M): 4.01 | mean conc (N=3) ([3]; plasma H): 45.9 | mean conc (N=3) ([3]; plasma L): 0.25 | mean conc (N=3) ([3]; plasma M): 2.95 | Ki (CYP2C19): 1920 nM | CYP2C19 inhibition, strength (CYP2C19; microsomes): weak

From PMC9792776 (Frontiers in Pharmacology, 2022)
